Measured values as given in US10517889B2, “Modulators of SMAD7 expression” (Ionis Pharmaceuticals, Inc., priority 2017, dated 2019).
Strand notation (5' to 3'): a small letter for the sugar, then the base; units joined by * are phosphorothioate-linked, units joined directly phosphodiester-linked; [ ] holds rarer units or linkages, { } end groups; capitals alone tell only the bases. k = constrained ethyl (cEt); [5mC] = 5-methylcytosine; d = 2'-deoxy (DNA)

system: human SMAD7 mRNA; assay: Antisense inhibition of human SMAD7 mRNA expression in Hep3B cells by 3-10-3 cEt gapmers, 10,000 nM, electroporation (Example 2); assay type: cell-based; details: SMAD7 mRNA, Hep3B cells, 10,000 nM antisense oligonucleotide, electroporation, approximately 24 hours, primer probe set RTS5062, relative to untreated control cells
Summary of the method: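 qRT-PCR (RTS5062) of SMAD7 mRNA, normalised to RIBOGREEN total RNA, gave percent inhibition relative to untreated controls. Hep3B cells at 20,000 per well received 10,000 nM oligonucleotide by electroporation, with ~24 h treatment.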

Going from “829754 (antisense kT*k[5mC]*kT*d[5mC]*d[5mC]*d[5mC]*d[5mC]*dG*d[5mC]*dA*dG*d[5mC]*dT*k[5mC]*kG*k[5mC]) [compound 829754]” to “829755 (antisense kT*kT*k[5mC]*dT*d[5mC]*d[5mC]*d[5mC]*d[5mC]*dG*d[5mC]*dA*dG*d[5mC]*kT*k[5mC]*kG) [compound 829755]”, the “% Inhibition” value rises from 49% to 52%.

Compared with “829756 (antisense k[5mC]*k[5mC]*kG*dT*d[5mC]*dG*d[5mC]*d[5mC]*d[5mC]*d[5mC]*dT*dT*d[5mC]*kT*k[5mC]*k[5mC]) [compound 829756]”, “829757 (antisense k[5mC]*k[5mC]*kG*dG*d[5mC]*d[5mC]*d[5mC]*d[5mC]*dA*dT*dG*d[5mC]*dG*k[5mC]*kT*k[5mC]) [compound 829757]” is lower in “% Inhibition” value: 42% for the first, 15% for the second.

Going from “829758 (antisense k[5mC]*kA*k[5mC]*d[5mC]*dG*dG*d[5mC]*d[5mC]*d[5mC]*d[5mC]*dA*dT*dG*k[5mC]*kG*k[5mC]) [compound 829758]” to “829759 (antisense k[5mC]*k[5mC]*kG*d[5mC]*d[5mC]*dA*d[5mC]*d[5mC]*dG*dG*d[5mC]*d[5mC]*d[5mC]*k[5mC]*kA*kT) [compound 829759]”, the “% Inhibition” value rises from 24% to 51%.

First: 829760 (antisense k[5mC]*k[5mC]*kG*d[5mC]*d[5mC]*dT*dT*dG*d[5mC]*d[5mC]*d[5mC]*dA*dG*kG*k[5mC]*kA) [compound 829760]
Second: 829761 (antisense kT*k[5mC]*kA*dG*dA*dT*d[5mC]*d[5mC]*dG*d[5mC]*d[5mC]*dT*d[5mC]*kG*kG*k[5mC]) [compound 829761]
The “% Inhibition” value of the first is lower: 3% for the first, 21% for the second.

First: 829763 (antisense kG*kT*kT*dT*d[5mC]*dT*dT*dG*dA*dG*d[5mC]*dA*d[5mC]*k[5mC]*kG*kA) [compound 829763]
Second: 829764 (antisense k[5mC]*k[5mC]*kG*d[5mC]*dT*d[5mC]*d[5mC]*dT*dT*d[5mC]*dA*dG*dT*kT*kT*k[5mC]) [compound 829764]
The “% Inhibition” value of the first is higher: 65% for the first, 44% for the second.

First: 829765 (antisense kG*k[5mC]*k[5mC]*dG*d[5mC]*dT*d[5mC]*d[5mC]*dT*dT*d[5mC]*dA*dG*kT*kT*kT) [compound 829765]
Second: 829766 (antisense k[5mC]*kT*kG*d[5mC]*d[5mC]*dG*d[5mC]*dT*d[5mC]*d[5mC]*dT*dT*d[5mC]*kA*kG*kT) [compound 829766]
The “% Inhibition” value of the first is lower: 28% for the first, 32% for the second.

Going from “829768 (antisense kG*k[5mC]*kA*dG*dG*dA*dG*dG*d[5mC]*dA*d[5mC]*dG*d[5mC]*kG*kG*kT) [compound 829768]” to “829769 (antisense k[5mC]*kA*kG*d[5mC]*dA*dG*dG*dA*dG*dG*d[5mC]*dA*d[5mC]*kG*k[5mC]*kG) [compound 829769]”, the “% Inhibition” value rises from 41% to 46%.

First: 829770 (antisense k[5mC]*kA*kG*dT*d[5mC]*d[5mC]*dA*dG*dG*d[5mC]*dG*dG*d[5mC]*k[5mC]*kG*kG) [compound 829770]
Second: 829771 (antisense kG*k[5mC]*kA*dG*dT*d[5mC]*d[5mC]*dA*dG*dG*d[5mC]*dG*dG*k[5mC]*k[5mC]*kG) [compound 829771]
The “% Inhibition” value of the first is higher: 42% for the first, 22% for the second.

Going from “829772 (antisense kA*kG*kG*dA*d[5mC]*dG*dA*dG*dG*dG*d[5mC]*dG*dG*k[5mC]*kT*kG) [compound 829772]” to “829773 (antisense kG*kT*kA*dG*dG*dA*d[5mC]*dG*dA*dG*dG*dG*d[5mC]*kG*kG*k[5mC]) [compound 829773]”, the “% Inhibition” value falls from 52% to 50%.

First: 829774 (antisense kA*kG*kT*dA*dG*dG*dA*d[5mC]*dG*dA*dG*dG*dG*k[5mC]*kG*kG) [compound 829774]
Second: 829775 (antisense k[5mC]*kG*kA*dG*dT*dA*dG*dG*dA*d[5mC]*dG*dA*dG*kG*kG*k[5mC]) [compound 829775]
The “% Inhibition” value of the first is lower: 22% for the first, 59% for the second.

Going from “829777 (antisense kG*kA*kG*d[5mC]*dG*dA*dG*dT*dA*dG*dG*dA*d[5mC]*kG*kA*kG) [compound 829777]” to “829778 (antisense kG*kG*kA*dG*d[5mC]*dG*dA*dG*dT*dA*dG*dG*dA*k[5mC]*kG*kA) [compound 829778]”, the “% Inhibition” value rises from 37% to 46%.

First: 829779 (antisense kG*kG*kG*dA*dG*d[5mC]*dG*dA*dG*dT*dA*dG*dG*kA*k[5mC]*kG) [compound 829779]
Second: 829780 (antisense k[5mC]*kG*kG*d[5mC]*d[5mC]*dA*d[5mC]*d[5mC]*dT*dG*dA*dA*d[5mC]*kA*k[5mC]*kT) [compound 829780]
The “% Inhibition” value of the first is higher: 58% for the first, 37% for the second.

First: 829781 (antisense k[5mC]*k[5mC]*kG*dG*d[5mC]*d[5mC]*dA*d[5mC]*d[5mC]*dT*dG*dA*dA*k[5mC]*kA*k[5mC]) [compound 829781]
Second: 829782 (antisense kA*kT*k[5mC]*d[5mC]*dG*dG*d[5mC]*d[5mC]*dA*d[5mC]*d[5mC]*dT*dG*kA*kA*k[5mC]) [compound 829782]
The “% Inhibition” value of the first is lower: 31% for the first, 36% for the second.

Compared with “829783 (antisense kG*kA*kT*d[5mC]*d[5mC]*dG*dG*d[5mC]*d[5mC]*dA*d[5mC]*d[5mC]*dT*kG*kA*kA) [compound 829783]”, “829784 (antisense kA*kG*kA*dT*d[5mC]*d[5mC]*dG*dG*d[5mC]*d[5mC]*dA*d[5mC]*d[5mC]*kT*kG*kA) [compound 829784]” is lower in “% Inhibition” value: 52% for the first, 32% for the second.

First: 829785 (antisense kA*kT*kG*d[5mC]*d[5mC]*dT*dG*dA*dG*dA*dT*d[5mC]*d[5mC]*kG*kG*k[5mC]) [compound 829785]
Second: 829786 (antisense kG*kA*kA*dT*dG*d[5mC]*d[5mC]*dT*dG*dA*dG*dA*dT*k[5mC]*k[5mC]*kG) [compound 829786]
The “% Inhibition” value of the first is lower: 27% for the first, 56% for the second.

Compared with “829787 (antisense kG*kG*kA*dA*dT*dG*d[5mC]*d[5mC]*dT*dG*dA*dG*dA*kT*k[5mC]*k[5mC]) [compound 829787]”, “829788 (kT*k[5mC]*k[5mC]*dG*dA*dG*dG*dA*dA*dT*dG*d[5mC]*d[5mC]*kT*kG*kA; antisense) [compound 829788]” is higher in “% Inhibition” value: 30% for the first, 41% for the second.

Going from “829789 (kA*k[5mC]*kT*dT*d[5mC]*d[5mC]*dG*dA*dG*dG*dA*dA*dT*kG*k[5mC]*k[5mC]; antisense) [compound 829789]” to “829790 (k[5mC]*k[5mC]*k[5mC]*dG*dT*dA*dA*dG*dA*dT*dT*d[5mC]*dA*k[5mC]*kA*kG; antisense) [compound 829790]”, the “% Inhibition” value rises from 42% to 51%.

Compared with “829791 (kT*kT*k[5mC]*d[5mC]*d[5mC]*dG*dT*dA*dA*dG*dA*dT*dT*k[5mC]*kA*k[5mC]; antisense) [compound 829791]”, “829792 (k[5mC]*kT*kT*d[5mC]*d[5mC]*d[5mC]*dG*dT*dA*dA*dG*dA*dT*kT*k[5mC]*kA; antisense) [compound 829792]” is higher in “% Inhibition” value: 38% for the first, 39% for the second.

Going from “829793 (kT*k[5mC]*kT*dT*d[5mC]*d[5mC]*d[5mC]*dG*dT*dA*dA*dG*dA*kT*kT*k[5mC]; antisense) [compound 829793]” to “829794 (kG*kA*kT*d[5mC]*dT*dT*d[5mC]*d[5mC]*d[5mC]*dG*dT*dA*dA*kG*kA*kT; antisense) [compound 829794]”, the “% Inhibition” value falls from 41% to 24%.
